Experiments:
Format in all cases: cell-based
[1] = target: T1, alpha2A receptor (Homo sapiens, UniProt P08913); test: RSAT (Receptor Selection and Amplification Technology) assay, alpha 2A; conditions: for EC50: RSAT, transfected NIH-3T3 cells, "not active" = not active at concentrations less than 10 micromolar; for Alpha 2A IA: intrinsic activity: ratio of maximal effect of drug to maximal effect of standard full agonist brimonidine (UK14304)
T1 construct: expressed in transfected cells; host or cells: NIH-3T3 cells
T1 sequence (P08913 1-465): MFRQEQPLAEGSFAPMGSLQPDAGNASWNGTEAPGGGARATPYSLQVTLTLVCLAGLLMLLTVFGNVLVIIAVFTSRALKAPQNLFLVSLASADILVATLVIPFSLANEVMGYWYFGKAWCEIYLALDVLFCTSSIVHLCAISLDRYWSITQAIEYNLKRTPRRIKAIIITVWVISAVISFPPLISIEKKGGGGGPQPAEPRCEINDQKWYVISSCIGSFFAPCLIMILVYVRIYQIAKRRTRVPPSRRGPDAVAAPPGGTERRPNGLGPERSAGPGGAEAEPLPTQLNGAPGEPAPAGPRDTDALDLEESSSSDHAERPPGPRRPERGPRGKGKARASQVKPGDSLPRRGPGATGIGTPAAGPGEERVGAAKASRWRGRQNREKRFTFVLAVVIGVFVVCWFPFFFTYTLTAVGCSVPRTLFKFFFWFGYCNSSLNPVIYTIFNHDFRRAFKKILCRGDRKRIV
Text: (§1) The aryl fluoroethyl ureas of the invention are agonists of alpha2 adrenergic receptors. […] Al, 1995, Pharmacol. Toxicol. 76, pp. 308-311 (incorporated herein by reference) and is also described below. Another reference pertinent to this assay is Conklin et al. (1993) Nature 363:274-6, Receptor Selection and Amplification Technology (RSAT) assay, also incorporated herein by reference.
(§2) The RSAT assay measures a receptor-mediated loss of contact inhibition that results in selective proliferation of receptor-containing cells in a mixed population of confluent cells. The increase in cell number is assessed with an appropriate transfected marker gene such as ∃-galactosidase, the activity of which can be easily measured in a 96-well format. Receptors that activate the G protein, Gq, elicit this response. Alpha 2 receptors, which normally couple to Gi, activate the RSAT response when coexpressed with a hybrid Gq protein that has a Gi receptor recognition domain, called Gq/i5.
(§3) NIH-3T3 cells are plated at a density of 2×10^6 cells in 15 cm dishes and maintained in Dulbecco's modified Eagle's medium supplemented with 10% calf serum. One day later, cells are cotransfected by calcium phosphate precipitation with mammalian expression plasmids encoding p-SV-β-galactosidase (5-10 μg), receptor (1-2 μg) and G protein (1-2 μg). 40 μg salmon sperm DNA may also be included in the transfection mixture. Fresh media is added on the following day and 1-2 days later, cells are harvested and frozen in 50 assay aliquots. Cells are thawed and 100 μl added to 100 μl aliquots of various concentrations of drugs in triplicate in 96-well dishes. Incubations continue 72-96 hr at 37° C. After washing with phosphate-buffered saline, ∃-galactosidase enzyme activity is determined by adding 200 μl of the chromogenic substrate (consisting of 3.5 mM o-nitrophenyl-β-D-galactopyranoside and 0.5% nonidet P-40 in phosphate buffered saline), incubating overnight at 30° C. and measuring optical density at 420 nm. The absorbance is a measure of enzyme activity, which depends on cell number and reflects a receptor-mediated cell proliferation. The efficacy or intrinsic activity is calculated as a ratio of the maximal effect of the drug to the maximal effect of a standard full agonist for each receptor subtype. Brimonidine, also called UK14304, the chemical structure of which is shown below, is used as the standard agonist for the alpha2A, alpha2B and alpha2C receptors.
(§4) The results of the RSAT assay with several exemplary compounds of the invention are disclosed in Table 1 below together with the chemical structures of these compounds. “Not active” means the compounds are not active at concentrations less than 10 micromolar.

[2] = target: T2, alpha2C receptor (Homo sapiens, UniProt P18825); test: RSAT (Receptor Selection and Amplification Technology) assay, alpha 2C; conditions: for EC50: RSAT, transfected NIH-3T3 cells, "not active" = not active at concentrations less than 10 micromolar; for Alpha 2C IA: intrinsic activity: ratio of maximal effect of drug to maximal effect of standard full agonist brimonidine (UK14304)
T2 construct: expressed in transfected cells; host or cells: NIH-3T3 cells
T2 sequence (P18825 1-462): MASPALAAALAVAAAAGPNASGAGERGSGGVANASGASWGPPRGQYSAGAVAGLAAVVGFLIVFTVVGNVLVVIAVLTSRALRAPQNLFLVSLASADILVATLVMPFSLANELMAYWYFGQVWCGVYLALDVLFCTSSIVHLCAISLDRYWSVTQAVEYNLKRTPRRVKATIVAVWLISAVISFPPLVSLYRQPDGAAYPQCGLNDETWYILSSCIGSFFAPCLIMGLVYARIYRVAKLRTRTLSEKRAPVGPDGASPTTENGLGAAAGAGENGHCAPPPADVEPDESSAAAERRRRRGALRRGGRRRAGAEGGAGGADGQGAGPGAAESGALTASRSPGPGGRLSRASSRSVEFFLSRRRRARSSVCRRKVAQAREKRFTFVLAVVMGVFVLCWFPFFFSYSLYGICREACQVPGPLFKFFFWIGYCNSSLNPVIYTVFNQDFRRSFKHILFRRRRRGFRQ
Text: as §1, §2, §3, §4

[3] = target: T3, alpha2B receptor (Homo sapiens, UniProt P18089); test: RSAT (Receptor Selection and Amplification Technology) assay, alpha 2B; conditions: for EC50: RSAT, transfected NIH-3T3 cells, "not active" = not active at concentrations less than 10 micromolar, read-out: Alpha 2B EC50; for Alpha 2B IA: intrinsic activity: ratio of maximal effect of drug to maximal effect of standard full agonist brimonidine (UK14304)
T3 construct: expressed in transfected cells; host or cells: NIH-3T3 cells
T3 sequence (P18089 1-450): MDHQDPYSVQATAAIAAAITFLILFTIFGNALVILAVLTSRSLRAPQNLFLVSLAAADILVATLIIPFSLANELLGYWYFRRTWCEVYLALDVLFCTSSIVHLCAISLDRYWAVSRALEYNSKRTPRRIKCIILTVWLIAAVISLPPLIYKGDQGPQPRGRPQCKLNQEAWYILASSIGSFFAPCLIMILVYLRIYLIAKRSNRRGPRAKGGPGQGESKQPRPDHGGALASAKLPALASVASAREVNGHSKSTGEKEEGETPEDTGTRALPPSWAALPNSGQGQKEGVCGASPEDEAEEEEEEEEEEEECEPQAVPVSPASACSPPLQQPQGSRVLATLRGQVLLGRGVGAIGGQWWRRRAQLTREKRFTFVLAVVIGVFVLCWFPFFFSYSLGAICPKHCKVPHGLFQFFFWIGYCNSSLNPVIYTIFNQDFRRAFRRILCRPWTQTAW
Procedure: as §2, §3

Structure (SMILES)	EC50 [1] [µM]	Alpha 2A IA [1]	EC50 [2] [µM]	Alpha 2C IA [2]	EC50 [3] [µM]	Alpha 2B IA [3]
O=C(NCCF)NCc1cccc2c1OCC2 [Compound 20, 1-(2,3-dihydro-benzofuran-7-ylmethyl)-3-(2-fluoro-ethyl)-urea]	0.147	0.51	0.082	0.83	0.027	1.14
O=C(NCCF)NCc1ccccc1Br [Compound 6, 1-(2-bromo-benzyl)-3-(2-fluoro-ethyl)-urea]	0.122	0.36	0.488	1.1	0.085	0.9

— patent US8557853B2, “Aryl fluoroethyl ureas acting as alpha 2 adrenergic agents” (Allergan, Inc., priority 2007, dated 2013)
